Assay results from article PMC7671475 (Journal of Inflammation Research, 2020).

Molecular target: Syk (spleen tyrosine kinase) (Homo sapiens, UniProt P43405)
Assay: ADP-Glo kinase assay with Promega Syk Kinase Enzyme System
Type: biochemical

Row | IC50 [µM] | Structure (SMILES)
1 | 0.114 | O=C(/C=C/c1ccc(O)c(O)c1)O[C@H](Cc1ccc(O)c(O)c1)C(=O)O [RosA, rosmarinic acid]
2 | 0.16 | CC1=CC(=O)CC(C)(C)[C@@]1(O)/C=C/[C@@H](C)O[C@@H]1O[C@H](CO)[C@@H](O)[C@H](O)[C@H]1O [RosS, roseoside]
3 | 0.284 | O=c1cc(-c2ccc(O)cc2)oc2c([C@@H]3O[C@H](CO)[C@@H](O)[C@H](O)[C@H]3O)c(O)c([C@@H]3O[C@H](CO)[C@@H](O)[C@H](O)[C@H]3O)c(O)c12 [Vic-2, vicenin-2]
